For 25 molecules, EC50 results are on record in patent US20240116962A1, “PYRIDINE-2-AMINE DERIVATIVE AND PHARMACEUTICAL COMPOSITION AND USE THEREOF” (TSINGHUA UNIVERSITY, priority 2020, published 2024).

The target of one test is T1, hTLR7 (Homo sapiens, UniProt Q9NYK1).
T1 construct: host or cells: HEK-Blue hTLR7 (HEK293-derived reporter cells with SEAP read-out)
T1 sequence (Q9NYK1 27-1049): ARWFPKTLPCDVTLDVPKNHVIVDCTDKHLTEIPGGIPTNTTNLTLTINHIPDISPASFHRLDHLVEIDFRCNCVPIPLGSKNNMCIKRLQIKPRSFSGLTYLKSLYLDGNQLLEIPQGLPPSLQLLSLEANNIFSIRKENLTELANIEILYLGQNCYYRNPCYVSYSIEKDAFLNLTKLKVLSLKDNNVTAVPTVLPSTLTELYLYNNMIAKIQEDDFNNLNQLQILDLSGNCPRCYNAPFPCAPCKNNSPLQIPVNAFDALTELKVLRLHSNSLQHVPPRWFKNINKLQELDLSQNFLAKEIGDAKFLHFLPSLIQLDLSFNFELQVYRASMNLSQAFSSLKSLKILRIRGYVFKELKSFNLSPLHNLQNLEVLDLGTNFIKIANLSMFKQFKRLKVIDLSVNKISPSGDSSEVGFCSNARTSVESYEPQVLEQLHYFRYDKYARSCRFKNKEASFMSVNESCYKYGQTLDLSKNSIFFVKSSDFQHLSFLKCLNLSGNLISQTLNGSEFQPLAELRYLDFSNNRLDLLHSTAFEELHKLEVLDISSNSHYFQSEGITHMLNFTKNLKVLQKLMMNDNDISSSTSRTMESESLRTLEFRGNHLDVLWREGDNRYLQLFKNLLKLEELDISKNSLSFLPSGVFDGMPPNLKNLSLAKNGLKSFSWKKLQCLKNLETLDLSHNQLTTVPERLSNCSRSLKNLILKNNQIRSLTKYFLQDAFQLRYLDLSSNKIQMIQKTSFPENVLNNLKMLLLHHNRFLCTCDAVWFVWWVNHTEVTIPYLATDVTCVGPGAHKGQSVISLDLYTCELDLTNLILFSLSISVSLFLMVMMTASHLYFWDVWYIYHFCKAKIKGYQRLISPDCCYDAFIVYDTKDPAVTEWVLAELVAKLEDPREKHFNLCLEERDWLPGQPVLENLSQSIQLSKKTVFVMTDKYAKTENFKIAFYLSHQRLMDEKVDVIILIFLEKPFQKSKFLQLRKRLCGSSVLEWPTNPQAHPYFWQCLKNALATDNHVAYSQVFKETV
Description: EC50 assay for small molecule agonists, HEK-Blue hTLR7 cells, SEAP readout. The test is classed as cell-based. The settings on record: agonist activity, nd = EC50 larger than 25 μM. Here is the method:
(§1) Reagents used for cell culture and detection for HEK-Blue™ hTLR7, HEK-Blue™ hTLR8 and control HEK-Blue Nu112k were as follows: DMEM (4.5 g/L glucose), bovine serum FBS, streptomycin ([…]), penicillin (50 U/mL), Blasticidin (10 mg/mL), Zeocin™ (10 mg/mL), Normocin (50 mg/mL), and HEK-Blue™ Detection. Basal medium was as follows: DMEM +10% FBS+streptomycin+penicillin+Normocin ([…]); selective medium for resistance genes was as follows: DMEM+10% FBS+streptomycin+penicillin+Normocin (1001 μg/mL)+Blasticidin (1001 μg/mL)+Zeocin™ (1001 μg/mL).
(§2) Cell preparation: HEK-Blue™ hTLR7 and HEK-Blue™ hTLR8 cell lines were purchased from Invivogen. The cells frozen in liquid nitrogen were taken, quickly placed in a water bath at 37° C., shaken occasionally, and completely melted within 1 min. The cells were transferred to 15 mL of pre-heated basal medium and resuspended; centrifuged at 1,000 r/min for 5 min, supernatant discarded; resuspended with 1 mL of basal medium, transferred to a T25 culture flask, supplemented to 5 mL with the medium, and incubated in an incubator at 37° C.; after stable passage twice, and subjected to selective antibiotic screening: HEK-Blue™ hTLR7 or HEK-Blue™ hTLR8: 100 μg/mL Zeocin+Blasticidin (30 μg/mL), HEK-Blue Nu112-k: 100 μg/mL Zeocin. The fluid was changed 3 times a week. When the number of cells reached 70%-80%, PBS was added, and the cells were exfoliated by gently pipetting.
(§3) Activity assay steps: (1) adding a test sample to a 96-well plate at 20 μL/well (triplicate wells were set); (2) adding 20 μL of positive control (e.g., R848), and adding 20 μL of negative control (e.g., ddH2O); (3) removing a T75 culture flask from the incubator, discarding the medium, adding 5-10 mL of pre-heated PBS, and gently pipetting the cells; adding 2-5 mL of PBS to the culture flask, incubating the culture flask in the incubator for 1-2 min, and then gently pipetting the cells to make them exfoliated; (4) mixing the mixture well, and counting the cells, without centrifugation; resuspending the cells with HEK-Blue™ assay solution and adjusting the cell number, taking care not to incubate for a long time to avoid too deep background or false positive. HEK-Blue hTLR cell number was about 2.2×10^5/mL, 180 μL/well (about 40000 cells), and HEK-Blue Nu112-k cell number was about 2.8×10^5/mL, 180 μL/well (about 50000 cells). (5) incubating the cells in the incubator at 37° C. for 6-16 h, and detecting at 620-655 nm for SEAP readings.
(§4) Effect %=(mean OD of the administration group−mean OD of the H2O group at each concentration)/(mean ODmax of the positive drug group−mean OD of the H2O group)×100. EC50 was calculated by fitting Lg [concentration]-effect curves using GraphPad Prism5 software.
(§5) Experimental results: the concentration for 50% of maximal effect (EC50) refers to a corresponding concentration of small molecules that can cause 50% of the maximal agonistic effect. […] EC50 represents a potency for agonizing the TLR8 receptor, with smaller values indicating better efficacy. […] In the following table, the unit of the agonist activity is nanomole, unless otherwise specified.

The next test concerns the target T2, hTLR8 (Homo sapiens, UniProt Q9NR97).
T2 construct: host or cells: HEK-Blue hTLR8 (HEK293-derived reporter cells with SEAP read-out)
T2 sequence (Q9NR97 27-1041): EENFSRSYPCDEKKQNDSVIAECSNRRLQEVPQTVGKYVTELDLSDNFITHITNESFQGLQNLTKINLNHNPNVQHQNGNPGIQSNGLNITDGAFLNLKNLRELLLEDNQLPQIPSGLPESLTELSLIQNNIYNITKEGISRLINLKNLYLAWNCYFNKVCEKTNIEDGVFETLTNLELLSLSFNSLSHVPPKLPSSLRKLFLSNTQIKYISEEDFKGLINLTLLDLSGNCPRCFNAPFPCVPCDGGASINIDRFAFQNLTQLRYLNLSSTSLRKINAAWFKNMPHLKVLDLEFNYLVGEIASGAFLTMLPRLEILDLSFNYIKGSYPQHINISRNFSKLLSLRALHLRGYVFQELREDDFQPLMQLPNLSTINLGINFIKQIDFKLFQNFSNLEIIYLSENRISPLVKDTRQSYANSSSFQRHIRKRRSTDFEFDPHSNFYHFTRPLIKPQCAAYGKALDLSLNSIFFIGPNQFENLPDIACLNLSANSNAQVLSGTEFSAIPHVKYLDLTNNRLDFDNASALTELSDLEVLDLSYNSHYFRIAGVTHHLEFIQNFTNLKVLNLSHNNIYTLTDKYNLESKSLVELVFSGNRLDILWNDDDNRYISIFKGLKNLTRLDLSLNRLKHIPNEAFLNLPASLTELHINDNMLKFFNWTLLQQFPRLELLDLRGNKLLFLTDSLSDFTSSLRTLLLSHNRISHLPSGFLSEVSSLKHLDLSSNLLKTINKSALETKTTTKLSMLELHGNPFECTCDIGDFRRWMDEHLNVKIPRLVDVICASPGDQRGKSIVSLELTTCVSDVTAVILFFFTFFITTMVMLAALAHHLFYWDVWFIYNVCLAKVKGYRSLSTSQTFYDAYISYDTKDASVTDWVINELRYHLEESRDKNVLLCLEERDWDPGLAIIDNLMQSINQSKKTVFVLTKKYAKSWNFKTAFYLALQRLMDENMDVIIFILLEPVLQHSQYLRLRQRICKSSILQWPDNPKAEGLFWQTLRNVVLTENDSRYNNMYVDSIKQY
The experiment in a line: EC50 assay for small molecule agonists, HEK-Blue hTLR8 cells, SEAP readout. In kind it is cell-based. The settings on record: agonist activity, read-out: hTLR8(EC50). Here is the method: as §1, §2, §3, §4, §5

With `CCCCCc1cc(Cc2ccc(CN3CCCC3)cc2O)c(C)nc1N` [Compound N47], the EC50 at hTLR7 is over 25000 nM; at hTLR8, 473 nM.

With `CCCCCc1cc2nc(Cc3ccc(CN(C)C)cc3)ccc2nc1N` [Compound N1], the half-maximal effective concentration (EC50) at hTLR7 was over 25000 nM; on hTLR8, 398 nM.

In the case of `CCCCCc1cc(Cc2ccc(CN(C)C)cc2)cnc1N` [Compound N31], the figures for the EC50 on hTLR7 and on hTLR8 were over 25000 nM and 248 nM, respectively.

With `CCCCCc1cc(Cc2ccc(CN3CCN(C)CC3)cc2OC(C)=O)c(C)nc1N` [Compound N53], the EC50 on hTLR7 is over 25000 nM; on hTLR8 it was 273 nM.

`CCCCCc1cc(Cc2ccccc2CO)c(C)nc1N` [Compound N33]: the EC50 was over 25000 nM at hTLR7 and over 4000 nM at hTLR8.

As for `CCCCCc1cc2nc(Cc3ccc(CN4CCCC4)cc3)ccc2nc1N` [Compound N2], the half-maximal effective concentration (EC50) on hTLR7 is over 25000 nM; at hTLR8 it was 480 nM.

For `CCCCCc1cc(Cc2ccc(CN(C)C)cc2OC)c(C)nc1N` [Compound N42], the 50% effective concentration (EC50) is over 25000 nM on hTLR7 and 87 nM on hTLR8.

With `CCCCCc1cc2nc(Cc3ccc(CN4CCOCC4)cc3)ccc2nc1N` [Compound N3], the EC50 at hTLR7 was over 25000 nM; on hTLR8 it was 1580 nM.

For the molecule `CCCCCc1cc(Cc2ccc(CN(C)CCC(=O)OC)cc2)c(C)nc1N` [Compound N15], the concentration giving a half-maximal response (EC50) at hTLR7 is over 25000 nM; at hTLR8 it was 628 nM.

Regarding `CCCCCc1cc(Cc2ccccc2CN(C)C)c(C)nc1N` [Compound N34], the EC50 was over 25000 nM on hTLR7 and over 4000 nM at hTLR8.

Take `CCCCCc1cc(Cc2ccc(CN3CC[C@H](O)C3)cc2)c(C)nc1N` [Compound N18]: the EC50 at hTLR7 was over 25000 nM; at hTLR8 it was 124 nM.

Consider `CCCCCc1cc(Cc2ccc(CN(C)C)cc2F)c(C)nc1N` [Compound N23], for which the EC50 at hTLR7 was over 25000 nM; on hTLR8, 80 nM.

On to `CCCCCc1cc(Cc2ccc(CN(C)CCOCCOCCC(F)(F)P(=O)(OCC)OCC)cc2)c(C)nc1N` [Compound N25], for which the 50% effective concentration (EC50) at hTLR7 is over 25000 nM; on hTLR8 it was over 4000 nM.

With `COCCCc1cc(Cc2ccc(CN3CCN(C)CC3)cc2)c(C)nc1N` [Compound N30], the EC50 on hTLR7 is over 25000 nM; on hTLR8 it was over 4000 nM.

`CCCCCc1cc(Cc2ccc(CN(C)CCOCCOCCC(F)(F)P(=O)(O)O)cc2)c(C)nc1N` [Compound N26]: the EC50 was over 25000 nM at hTLR7 and over 4000 nM on hTLR8.

With `CCCCCc1cc(Cc2ccc(CN3CCOCC3)cc2)c(C)nc1N` [Compound N8], the EC50 is over 25000 nM on hTLR7 and 428 nM on hTLR8.

`CCCCCc1cc(Cc2ccc(CN3CCCC3)cc2)c(C)nc1N` [Compound N7]: the EC50 on hTLR7 was over 25000 nM; at hTLR8, 63 nM.

Take `CCCCCc1cc(Cc2ccc(CN(C)C)cc2)c(C)nc1N` [Compound N4]: the values for the EC50 on hTLR7 and on hTLR8 were over 25000 nM and 58 nM, respectively.

Take `CCCCCc1cc(Cc2ccc(CN3CC(O)C3)cc2)c(C)nc1N` [Compound N21]: the 50% effective concentration (EC50) is over 25000 nM at hTLR7 and 117 nM on hTLR8.

Regarding `CCCCCc1cc(Cc2ccc(CN(C)CCC(=O)O)cc2)c(C)nc1N` [Compound N16], the results for the half-maximal effective concentration (EC50) on hTLR7 and at hTLR8 were over 25000 nM and over 4000 nM, respectively.

`CCCCNc1cc(Cc2ccc(CN3CC4(COC4)C3)cc2F)c(C)nc1N` [Compound N58]: the concentration for a half-maximal effect (EC50) is over 25000 nM on hTLR7 and 40 nM at hTLR8.

Consider `CCCCCc1cc(Cc2ccc(CN3CCC3)cc2)c(C)nc1N` [Compound N17], for which the EC50 on hTLR7 was over 25000 nM; at hTLR8, 121 nM.

Consider `CCCCCc1cc(Cc2ccc(CN)cc2)c(C)nc1N` [Compound N5], for which the half-maximal effective concentration (EC50) is over 25000 nM on hTLR7 and 122 nM at hTLR8.

For `CCCCCc1cc(Cc2ccc(CN3CCCC3)cc2OC(C)=O)c(C)nc1N` [Compound N51], the concentration for a half-maximal effect (EC50) on hTLR7 was over 25000 nM; at hTLR8, 175 nM.

With `CCCCCc1cc(Cc2ccc(COC)cc2)c(C)nc1N` [Compound N27], the EC50 on hTLR7 is over 25000 nM; at hTLR8 it was over 4000 nM.

Broadly, the EC50 is the concentration that produces a half-maximal response.
